The values below come from patent publication US20260365670A1, “EGFR INHIBITORS AND USES THEREOF” (DIZAL (JIANGSU) PHARMACEUTICAL CO., LTD., priority 2022, published 2026).

Read-outs that look alike come from different tables or passages of the source.

Experiment [1] addresses T1, EGFR (C797S L858R) (Homo sapiens, UniProt P00533, C797S/L858R).
T1 construct: purchased signalchem
Description: Inhibition of EGFR (C797S L858R) biochemical enzymatic activity (HTRF). The following applies: EGFR L858-C797S, 1 mM ATP, 1 h, room temperature, read-out: IC50 (nM) @L858-C797S. Summed up: (§1)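 HTRF kinase assay: each EGFR enzyme phosphorylated 1 μM biotinylated TK substrate with 1 mM ATP in buffer containing 5 mM MgCl2, 1 mM MnCl2, 0.01% CHAPS, 1 mM DTT, 0.5% DMSO. After 1 h at room temperature, EDTA detection mix stopped the reaction. IC50 came from a four-parameter logistic fit of the 665/615 nm ratio.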

In experiment [2] the target is T2, EGFR L858R (Homo sapiens, UniProt P00533, L858R).
T2 construct: purchased Carna Bio
Put plainly: Inhibition of EGFR L858R biochemical enzymatic activity (HTRF). As to conditions: 1 mM ATP, 1 h, room temperature, read-out: IC50 (nM) @L858R. Summed up:
as §1

Experiment [3] concerns the target T3, EGFR wild type (Homo sapiens, UniProt P00533).
T3 construct: purchased Carna Bio
Put plainly: Inhibition of EGFR wild type biochemical enzymatic activity (HTRF). The following applies: EGFR WT, 1 mM ATP, 1 h, room temperature, read-out: IC50 (nM) @WT. Summed up: as §1
(In general: Time-resolved FRET reads energy transfer from a long-lived donor to a nearby acceptor.)

The target in experiment [4] is T4, EGFR Exon19Del (Homo sapiens, UniProt P00533, DEL746-750).
T4 construct: purchased Carna Bio
Put plainly: Inhibition of EGFR Exon19Del biochemical enzymatic activity (HTRF). The following applies: EGFR Del19, 1 mM ATP, 1 h, room temperature, read-out: IC50 @Del19. Summed up:
as §1

Experiment [5] deals with T5, EGFR[T790M/C797S/d746-750] (Homo sapiens, UniProt P00533, C797S/DEL746-750/T790M).
T5 construct: purchased Carna Bio
Put plainly: Inhibition of EGFR[T790M/C797S/d746-750] biochemical enzymatic activity (HTRF). The following applies: EGFR T790M-C797S-Del19, 1 mM ATP, 1 h, room temperature, read-out: IC50 (nM) @T790M - C797S - Del19. Summed up:
as §1

Experiment [6] deals with T6, EGFR L858R/T790M (Homo sapiens, UniProt P00533, L858R/T790M).
T6 construct: purchased Carna Bio
Description: Inhibition of EGFR L858R/T790M biochemical enzymatic activity (HTRF). The following applies: EGFR L858R-T790M, 1 mM ATP, 1 h, room temperature, read-out: IC50 (nM) @L858R-T790M. Summed up: as §1

Experiment [7] concerns the target T7, EGFR Exon19Del/T790M (Homo sapiens, UniProt P00533, DEL746-750/T790M).
T7 construct: purchased Carna Bio
Description: Inhibition of EGFR Exon19Del/T790M biochemical enzymatic activity (HTRF). The following applies: EGFR Del19-T790M, 1 mM ATP, 1 h, room temperature, read-out: IC50 (nM) @Del19-T790M. Summed up: as §1

Experiment [8] concerns PC-9. Description: Cell proliferation assay, PC-9 cells (CellTiter-Glo, 72 hours). It is filed as cell-based. The following applies: Homo sapiens, PC-9, 72 h, PC9 cells, CellTiter-Glo, read-out: PC9 GI50. Summed up: (§2)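 Ba/F3 cells carrying EGFR mutants (5000/well) or PC-9 cells (500/well) in RPMI1640 were dosed with compound series after overnight attachment and grown 72 h. Viability read by CellTiter-Glo, with day-0 counts subtracted; GI50 from curve fits of % proliferation versus DMSO control.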
On the technique in general: In ATP-based viability assays light output follows the ATP content of the culture.

The target in experiment [9] is T8, EGFR[T790M/C797S/L858R] (Homo sapiens, UniProt P00533, C797S/L858R/T790M).
T8 construct: purchased Carna Bio
Put plainly: Inhibition of EGFR[T790M/C797S/L858R] biochemical enzymatic activity (HTRF). As to conditions: EGFR T790M-C797S-L858R, 1 mM ATP, 1 h, room temperature, read-out: IC50 (nM) @T790M- C797S - L858R. Summed up: as §1

Experiment [10] relates to A-431. Put plainly: Cell proliferation GI50, A-431 cells (Table 6). The experiment is classed as cell-based. The following applies: Homo sapiens, A-431, A-431 cells.
Experiment [11] concerns Ba/F3 cells expressing EGFR mutations. Put plainly: Cell proliferation assay, Ba/F3 cells expressing EGFR mutations (CellTiter-Glo, 72 hours). The experiment is classed as cell-based. As to conditions: Mus musculus, BaF3, 72 h, CellTiter-Glo. Summed up:
as §2

Experiment [12] deals with T9, EGFR (d746-750 C797S) (Homo sapiens, UniProt P00533, C797S/DEL746-750).
T9 construct: purchased signalchem
Put plainly: Inhibition of EGFR (d746-750 C797S) biochemical enzymatic activity (HTRF). As to conditions: EGFR Del19-C797S, 1 mM ATP, 1 h, room temperature, read-out: IC50 (nM) @Del19-C797S. Summed up:
as §1

Where [13] appears, read: BaF3 cells, EGFR DEL19-C797S, read-out: DEL19-C797S/BaF3 GI50.
Setting [14] is: BaF3 cells, EGFR DEL19-T790-C797S, read-out: DEL19-T790-C797S/BaF3 GI50.
Where [15] appears, read: BaF3 cells, EGFR L858R, read-out: L858R/BaF3 GI50.
Setting [16] is: BaF3 cells, EGFR L858R-C797S, read-out: L858R-C797S/BaF3 GI50.
Setting [17] is: BaF3 cells, EGFR L858R-T790-C797S, read-out: L858R-T790-C797S/BaF3 GI50.
[18] abbreviates: BaF3 cells, EGFR L858R-T790M, read-out: L858R-T790M/BaF3 GI50.
[19] abbreviates: EGFR DEL19-T790M, read-out: DEL19-T790M GI50.

A word on the IC50: it is the midpoint of a concentration-inhibition curve.

T9 sequence (P00533 with tags, fused parts or gaps DEL746-750/C797S limits assumed): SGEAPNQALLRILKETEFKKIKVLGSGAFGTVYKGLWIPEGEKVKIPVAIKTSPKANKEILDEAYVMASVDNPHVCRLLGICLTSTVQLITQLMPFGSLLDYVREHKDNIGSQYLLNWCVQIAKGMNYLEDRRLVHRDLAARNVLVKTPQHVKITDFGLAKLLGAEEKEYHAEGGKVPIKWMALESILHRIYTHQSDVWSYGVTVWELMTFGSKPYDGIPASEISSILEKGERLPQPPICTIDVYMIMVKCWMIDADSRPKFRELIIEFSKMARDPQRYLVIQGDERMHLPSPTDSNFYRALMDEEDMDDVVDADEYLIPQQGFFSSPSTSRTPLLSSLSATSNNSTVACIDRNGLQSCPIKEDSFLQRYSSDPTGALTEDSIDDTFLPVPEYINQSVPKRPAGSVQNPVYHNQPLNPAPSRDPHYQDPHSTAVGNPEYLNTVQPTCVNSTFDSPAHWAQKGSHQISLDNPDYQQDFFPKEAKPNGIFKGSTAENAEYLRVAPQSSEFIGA
T7 sequence (P00533 with tags, fused parts or gaps DEL746-750/T790M limits assumed): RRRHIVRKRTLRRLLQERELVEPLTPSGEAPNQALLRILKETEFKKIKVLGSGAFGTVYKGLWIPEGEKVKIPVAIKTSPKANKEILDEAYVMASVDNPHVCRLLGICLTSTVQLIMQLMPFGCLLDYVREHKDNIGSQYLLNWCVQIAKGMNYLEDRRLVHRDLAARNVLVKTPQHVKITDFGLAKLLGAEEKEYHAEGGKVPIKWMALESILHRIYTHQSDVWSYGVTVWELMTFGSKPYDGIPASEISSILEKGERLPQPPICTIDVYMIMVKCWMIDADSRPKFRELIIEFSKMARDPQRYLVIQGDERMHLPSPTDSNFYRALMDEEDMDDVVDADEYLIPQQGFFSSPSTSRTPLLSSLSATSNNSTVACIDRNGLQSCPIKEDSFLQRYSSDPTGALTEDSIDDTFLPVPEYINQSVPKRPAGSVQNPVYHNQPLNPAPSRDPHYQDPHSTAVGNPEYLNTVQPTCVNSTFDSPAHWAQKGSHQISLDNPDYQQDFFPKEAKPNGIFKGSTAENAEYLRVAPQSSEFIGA
T5 sequence (P00533 with tags, fused parts or gaps DEL746-750/T790M/C797S limits assumed): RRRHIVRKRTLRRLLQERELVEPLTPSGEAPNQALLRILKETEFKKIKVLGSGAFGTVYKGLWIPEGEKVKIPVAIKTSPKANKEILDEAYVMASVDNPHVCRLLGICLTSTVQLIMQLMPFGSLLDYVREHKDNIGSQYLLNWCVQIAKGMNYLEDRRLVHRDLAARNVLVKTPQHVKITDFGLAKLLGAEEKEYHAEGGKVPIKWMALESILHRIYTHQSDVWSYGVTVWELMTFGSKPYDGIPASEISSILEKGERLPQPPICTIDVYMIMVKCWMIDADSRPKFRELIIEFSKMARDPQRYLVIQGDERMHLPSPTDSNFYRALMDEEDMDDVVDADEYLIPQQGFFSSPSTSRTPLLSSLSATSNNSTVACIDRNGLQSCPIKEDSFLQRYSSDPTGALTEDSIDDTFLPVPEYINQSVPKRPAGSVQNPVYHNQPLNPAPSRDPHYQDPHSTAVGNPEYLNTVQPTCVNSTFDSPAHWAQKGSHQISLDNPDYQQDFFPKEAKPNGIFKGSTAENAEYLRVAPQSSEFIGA
T2 sequence (P00533 25-1210 L858R): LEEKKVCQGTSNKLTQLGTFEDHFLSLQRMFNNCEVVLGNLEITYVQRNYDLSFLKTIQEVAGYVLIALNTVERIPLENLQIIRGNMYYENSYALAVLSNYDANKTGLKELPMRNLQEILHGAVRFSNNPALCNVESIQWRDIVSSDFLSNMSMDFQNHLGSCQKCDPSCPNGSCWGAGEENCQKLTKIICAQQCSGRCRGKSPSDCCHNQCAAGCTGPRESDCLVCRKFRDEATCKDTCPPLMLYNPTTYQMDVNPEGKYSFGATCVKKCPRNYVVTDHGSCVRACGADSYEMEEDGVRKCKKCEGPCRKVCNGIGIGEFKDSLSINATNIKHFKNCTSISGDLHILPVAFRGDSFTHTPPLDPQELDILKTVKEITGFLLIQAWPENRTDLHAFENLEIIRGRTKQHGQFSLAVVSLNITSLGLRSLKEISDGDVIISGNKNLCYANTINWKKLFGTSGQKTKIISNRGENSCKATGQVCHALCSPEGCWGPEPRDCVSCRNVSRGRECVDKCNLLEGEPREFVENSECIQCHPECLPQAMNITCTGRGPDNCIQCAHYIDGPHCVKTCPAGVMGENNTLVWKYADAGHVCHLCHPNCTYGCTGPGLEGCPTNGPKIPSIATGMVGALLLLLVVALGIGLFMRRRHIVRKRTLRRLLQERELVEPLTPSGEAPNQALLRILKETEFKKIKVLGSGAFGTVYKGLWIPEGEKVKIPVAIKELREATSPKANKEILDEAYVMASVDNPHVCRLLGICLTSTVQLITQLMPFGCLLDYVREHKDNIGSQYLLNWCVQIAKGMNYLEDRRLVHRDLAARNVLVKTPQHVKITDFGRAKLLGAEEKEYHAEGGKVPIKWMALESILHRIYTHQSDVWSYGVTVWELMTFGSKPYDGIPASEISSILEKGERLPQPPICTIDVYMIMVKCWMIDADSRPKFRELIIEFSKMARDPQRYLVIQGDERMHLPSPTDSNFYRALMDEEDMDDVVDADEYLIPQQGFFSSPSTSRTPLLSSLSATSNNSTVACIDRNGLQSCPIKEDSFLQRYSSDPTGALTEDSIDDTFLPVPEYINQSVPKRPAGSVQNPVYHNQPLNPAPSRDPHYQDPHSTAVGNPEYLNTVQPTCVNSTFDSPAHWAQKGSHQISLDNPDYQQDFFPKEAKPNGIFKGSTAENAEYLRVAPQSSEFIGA
T3 sequence (P00533 25-1210): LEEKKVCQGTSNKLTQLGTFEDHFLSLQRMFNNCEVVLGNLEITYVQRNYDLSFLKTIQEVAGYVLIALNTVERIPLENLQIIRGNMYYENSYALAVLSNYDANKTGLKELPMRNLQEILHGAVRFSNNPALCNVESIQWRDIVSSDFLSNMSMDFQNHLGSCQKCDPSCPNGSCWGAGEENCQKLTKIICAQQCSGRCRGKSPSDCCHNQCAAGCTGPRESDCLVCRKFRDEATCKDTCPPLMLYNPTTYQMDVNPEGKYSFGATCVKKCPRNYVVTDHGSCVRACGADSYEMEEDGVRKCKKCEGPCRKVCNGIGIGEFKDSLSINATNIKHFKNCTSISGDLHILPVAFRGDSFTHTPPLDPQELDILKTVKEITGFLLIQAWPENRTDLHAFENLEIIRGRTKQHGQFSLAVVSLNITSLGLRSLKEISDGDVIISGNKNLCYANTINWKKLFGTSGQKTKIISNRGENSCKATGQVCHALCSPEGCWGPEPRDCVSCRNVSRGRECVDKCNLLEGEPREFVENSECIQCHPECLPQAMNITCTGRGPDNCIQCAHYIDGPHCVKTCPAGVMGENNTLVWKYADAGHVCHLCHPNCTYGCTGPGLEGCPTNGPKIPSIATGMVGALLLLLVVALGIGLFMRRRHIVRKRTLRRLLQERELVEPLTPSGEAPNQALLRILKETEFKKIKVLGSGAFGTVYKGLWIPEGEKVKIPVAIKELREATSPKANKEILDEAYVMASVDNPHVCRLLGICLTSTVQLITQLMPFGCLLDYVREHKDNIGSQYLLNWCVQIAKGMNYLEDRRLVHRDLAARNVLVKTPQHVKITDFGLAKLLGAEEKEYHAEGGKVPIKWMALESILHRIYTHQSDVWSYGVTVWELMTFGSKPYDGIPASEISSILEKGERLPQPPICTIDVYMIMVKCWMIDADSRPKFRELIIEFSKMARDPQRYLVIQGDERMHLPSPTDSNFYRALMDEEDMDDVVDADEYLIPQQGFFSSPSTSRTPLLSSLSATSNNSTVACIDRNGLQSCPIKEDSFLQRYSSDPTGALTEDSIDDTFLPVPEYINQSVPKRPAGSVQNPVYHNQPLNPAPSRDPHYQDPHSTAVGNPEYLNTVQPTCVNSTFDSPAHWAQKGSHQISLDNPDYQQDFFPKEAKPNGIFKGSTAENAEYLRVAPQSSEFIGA
T4 sequence (P00533 with tags, fused parts or gaps DEL746-750 limits assumed): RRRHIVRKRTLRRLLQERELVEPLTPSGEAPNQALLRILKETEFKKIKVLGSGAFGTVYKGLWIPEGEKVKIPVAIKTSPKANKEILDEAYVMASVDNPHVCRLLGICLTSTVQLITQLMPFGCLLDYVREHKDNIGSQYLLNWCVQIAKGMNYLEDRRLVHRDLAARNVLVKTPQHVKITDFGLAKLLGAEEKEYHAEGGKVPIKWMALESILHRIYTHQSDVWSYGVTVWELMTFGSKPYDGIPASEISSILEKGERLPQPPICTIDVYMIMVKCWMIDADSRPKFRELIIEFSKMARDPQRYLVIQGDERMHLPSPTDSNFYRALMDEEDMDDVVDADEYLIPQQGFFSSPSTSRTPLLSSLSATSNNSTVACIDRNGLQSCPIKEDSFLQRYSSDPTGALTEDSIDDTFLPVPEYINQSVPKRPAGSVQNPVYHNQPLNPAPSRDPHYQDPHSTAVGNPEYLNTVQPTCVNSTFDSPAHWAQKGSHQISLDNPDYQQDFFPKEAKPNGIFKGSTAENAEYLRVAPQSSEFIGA

For `CCn1ncc2c1OCCC[C@@H](C)Cn1c(nc3ccc(N4CCN(C)CC4)cc31)NC(=O)c1cc-2c(=O)n(C)c1` [Example A21, (11R)-5-ethyl-11,26-dimethyl-16-(4-methylpiperazin-1-yl)-7-oxa-4,5,13,20,22,26-hexaazapentacyclo[22.3.1.0^{2,6}.0^{13,21}.0^{14,19}]octacosa-1(28),2(6),3,14,16,18,20,24-octaene-23,27-dione], the concentration for half-maximal inhibition (IC50) in experiment [1] was 15 nM; in [2], 37 nM; in [3], 446 nM; in experiment [4] it was 4.6 nM; in experiment [5], 7.1 nM; in experiment [6], 18 nM. Further, the half-maximal inhibitory concentration (IC50) amounted to 7.3 nM in experiment [7], 7.2 nM in experiment [9] and 3.7 nM in experiment [12]. For the same molecule, the GI50 was determined as 24 nM in experiment [8]; 1110 nM in experiment [10]; 2.1 nM in experiment [11] (setting [13]); 22 nM in experiment [11] (setting [14]); 19 nM in experiment [11] (setting [15]); 26 nM in experiment [11] (setting [16]). Moreover, the GI50 in experiment [11] (setting [17]) was 7.2 nM; in experiment [11] (setting [18]) it was 6.7 nM; in experiment [11] (setting [19]) it was 24 nM.

`C[C@@H]1CCCOc2c(cnn2C2CC2)-c2cc(cn(C)c2=O)C(=O)Nc2nc3ccc(N4CCN(C)CC4)cc3n2C1` [Example A22, (11R)-5-Cyclopropyl-11,26-dimethyl-16-(4-methylpiperazin-1-yl)-7-oxa-4,5,13,20,22,26-hexaazapentacyclo[22.3.1.0^{2,6}.0^{13,21}.0^{14,19}]octacosa-1(28),2(6),3,14,16,18,20,24-octaene-23,27-dione]: the half-inhibitory concentration (IC50) in [1] is 25 nM; in experiment [2], 86 nM; in experiment [3] it was 1200 nM; in experiment [4], 9.1 nM; in [5] it was 6.5 nM; in [6], 6.3 nM. Also, the values for the half-maximal inhibitory concentration (IC50) in [7], in experiment [9] and in experiment [12] were 6.2 nM, 5.8 nM and 6.5 nM, respectively. For the same molecule, the GI50 in experiment [8] was found to be 87 nM; in [10], 2290 nM; in experiment [11] (setting [13]) it was 9.3 nM; in experiment [11] (setting [14]), 11 nM; in experiment [11] (setting [15]), 30 nM; in experiment [11] (setting [16]), 22 nM. The values for the GI50 in experiment [11] (setting [17]), in experiment [11] (setting [18]) and in [11] (setting [19]) were 9.6 nM, 51 nM and 20 nM, respectively.

Turning to `C[C@@H]1CCCOc2c(cnn2C)-c2cc(cn(C)c2=O)C(=O)Nc2nc3ccc(N4CCNCC4)c(Cl)c3n2C1` [Example A23, (11R)-15-chloro-5,11,26-trimethyl-16-(piperazin-1-yl)-7-oxa-4,5,13,20,22,26-hexaazapentacyclo[22.3.1.0^{2,6}.0^{13,21}.0^{14,19}]octacosa-1(28),2(6),3,14,16,18,20,24-octaene-23,27-dione], the IC50 in experiment [1] is 61 nM; in experiment [2] it was 207 nM; in experiment [3] it was above 5000 nM; in experiment [4] it was 4.7 nM; in experiment [5], 2.7 nM; in experiment [6], 12 nM. For the same molecule, the IC50 in experiment [7] amounted to 3 nM; in [9], 2.7 nM; in experiment [12], 3 nM. In addition, the GI50 in experiment [8] came to 208 nM; in [10], 2820 nM; in [11] (setting [13]) it was 4 nM; in experiment [11] (setting [14]), 11 nM; in experiment [11] (setting [15]) it was 104 nM; in experiment [11] (setting [16]) it was 32 nM. The GI50 is 12 nM in [11] (setting [17]), 151 nM in experiment [11] (setting [18]) and 10 nM in experiment [11] (setting [19]).
